Results reported in the Deep4Chem optical property database.

Assay: solvent given as SMILES

With CC1(C)c2ccccc2N(c2ccc(-c3ncc(C#N)cn3)cc2)c2ccccc21 the absorption maximum (in Cc1ccccc1) was 396 nm.

Cc1c2oc3c(C)c(N)cc(C(=O)NC4OC(=O)C(C(C)C)N(C)C(=O)CN(C)C(=O)C5CCCN5C(=O)C(C(C)C)NC4=O)c3nc-2c(C(=O)NC2OC(=O)C(C(C)C)N(C)C(=O)CN(C)C(=O)C3CCCN3C(=O)C(C(C)C)NC2=O)c(N)c1=O (stereo not drawn) gave an absorption maximum (in C1CCOC1) of 524.93 nm, an absorption maximum (in CC#N) of 516.03 nm and an absorption maximum (in CC(=O)O) of 521 nm. The absorption maximum (in CC(C)=O) was 522.69 nm, the absorption maximum (in CCCCO) was 532.67 nm and the absorption maximum (in CCCCOC(C)=O) was 524.07 nm. It also gave an absorption maximum (in CCCO) of 533.23 nm, an absorption maximum (in CCN(CC)CC) of 534.89 nm and an absorption maximum (in CCO) of 531.93 nm. The absorption maximum (in CCOC(C)=O) was 522.62 nm, the absorption maximum (in CN(C)C=O) was 535.18 nm and the absorption maximum (in CO) was 529.7 nm. For the same compound, the absorption maximum (in CS(C)=O) was 540.29 nm, the absorption maximum (in Cc1ccccc1) was 528.44 nm and the absorption maximum (in ClC(Cl)Cl) was 520.12 nm. The absorption maximum (in ClCCCl) was 517.19 nm, the absorption maximum (in O) was 514.17 nm and the absorption maximum (in O=[N+]([O-])c1ccccc1) was 534 nm. The absorption maximum (in c1ccccc1) was 522.11 nm and the absorption maximum (in c1ccncc1) was 541.16 nm.

O=P1(c2ccccc2)C(c2ccc(C3=Cc4ccccc4P3(=O)c3ccccc3)cc2)=Cc2ccccc21 (stereo not drawn) showed an absorption maximum (in C1CCOC1) of 387 nm.

Compound O=c1c2cc(F)c(N3CCCCC3)cc2oc2cc(N3CCCCC3)c(F)cc12 has an absorption maximum (in CCO) of 369 nm.

CCCCCCCCc1ccc(-n2c3c4ccccc4nnc3c3c2c2nnc4ccccc4c2n3-c2ccc(CCCCCCCC)cc2)cc1 showed an absorption maximum (in Cc1ccccc1) of 316 nm.

With COc1ccc(-c2nc(-c3ccc(C)cc3)c3ccccn23)cc1 the absorption maximum (in ClC(Cl)Cl) was 303 nm.

In the case of CCn1c2ccccc2c2cc(-c3cc(-c4ccc5c(c4)c4ccccc4n5CC)nc(OC)n3)ccc21, the absorption maximum (in C1CCOC1) is reported as 366 nm, the absorption maximum (in CCOC(C)=O) is reported as 364 nm and the absorption maximum (in CN(C)C=O) is reported as 369 nm. The absorption maximum (in Cc1ccccc1) was 365 nm and the absorption maximum (in ClCCl) was 366 nm.

CCC1=C(C)C2=Cc3cscc3B(O)N2C1=O gave an absorption maximum (in CC#N) of 350 nm, an absorption maximum (in CCCCCC) of 351 nm and an absorption maximum (in CO) of 355 nm. It also gave an absorption maximum (in CS(C)=O) of 352 nm and an absorption maximum (in ClC(Cl)Cl) of 355 nm.

CCN(CC)c1ccc2c(c1)oc(=O)c1c(=O)oc3c(OC)cccc3c12 gave an absorption maximum (in CS(C)=O) of 462 nm and an absorption maximum (in ClCCl) of 458 nm.

With NCCCCCCCCCCCCN1C(=O)c2ccc3c4ccc5c6c(ccc(c7ccc(c2c37)C1=O)c64)C(=O)N(CCCCCCCCCCCCN)C5=O the absorption maximum (in CN(C)C=O) was 523 nm.

Compound N#Cc1ccc(-n2cccc2)cc1 has an absorption maximum (in C1CCOC1) of 287 nm, an absorption maximum (in CC#N) of 287 nm and an absorption maximum (in CCCCCC) of 287 nm. The absorption maximum (in CCOCC) was 287 nm and the absorption maximum (in ClCCl) was 287 nm.

For CCCCCCCCc1ccc(-n2c3c(c4c2c2c(n4-c4ccc(CCCCCCCC)cc4)-c4ccccc4NB2c2ccccc2)B(c2ccccc2)Nc2ccccc2-3)cc1, the absorption maximum (in Cc1ccccc1) was 387 nm.

Work on CC(C)(C)c1ccc(N(c2ccc(S(=O)(=O)c3ccc(S(=O)(=O)c4ccc(N(c5ccc(C(C)(C)C)cc5)c5ccccc5C(C)(C)C)cc4)cc3)cc2)c2ccccc2C(C)(C)C)cc1 yielded an absorption maximum (in Cc1ccccc1) of 351 nm.

CCN(CC)c1ccc2cc(C#N)/c(=N\C(=O)C(C)C)oc2c1 showed an absorption maximum (in CCO) of 422 nm and an absorption maximum (in ClCCl) of 428 nm.

CCOC(=O)c1c(-c2cc3cc4c(cc3oc2=O)OC(C)(C)CC4)nn(-c2cccc(C)c2)c1C(=O)OCC showed an absorption maximum (in ClCCl) of 347 nm.

O=Cc1cc(O)c(C=O)cc1O showed an absorption maximum (in C1CCOC1) of 414 nm, an absorption maximum (in C1COCCO1) of 414 nm and an absorption maximum (in CC#N) of 413 nm. It also gave an absorption maximum (in CC(C)=O) of 413 nm, an absorption maximum (in CCCO) of 415 nm and an absorption maximum (in CCO) of 413 nm. For the same compound, the absorption maximum (in CN(C)C=O) was 414 nm, the absorption maximum (in CN(C)P(=O)(N(C)C)N(C)C) was 427 nm and the absorption maximum (in CNC=O) was 377 nm. The absorption maximum (in CO) was 384 nm, the absorption maximum (in CS(C)=O) was 417 nm and the absorption maximum (in NC=O) was 356 nm.

C[Si](C)(C)C#Cc1ccc2c3cccc4cccc(c5cccc1c52)c43 showed an absorption maximum (in C1CCCCC1) of 459 nm.

For CCCCCCN1C(=O)c2cccc3c(-c4ccc(-c5cc(-c6ccc(Cl)cc6)nn5-c5ccccc5)s4)ccc(c23)C1=O, the absorption maximum (in ClCCl) was 389 nm.

COC(=O)c1ccc(C2=C3C=c4sc(-c5cccs5)cc4=[N+]3[B-](F)(F)n3c2cc2sc(-c4cccs4)cc23)cc1 gave an absorption maximum (in ClCCl) of 684 nm.

For CC[Si](CC)(CC)c1cc2ccc3cccc4ccc(c1C(=O)NC(C)(C)C)c2c34, the absorption maximum (in ClC(Cl)Cl) was 381 nm.

Cc1cccc(C)c1/C=C/c1nc(N2CCOCC2)c2c([n+]1[O-])CCCC2 showed an absorption maximum (in ClCCl) of 384 nm.

In the case of Cc1cc(C)c(C2=C3C=C(c4ccccc4)C(c4ccccc4)=[N+]3[B-](F)(F)n3c2cc(-c2ccccc2)c3-c2ccccc2)c(C)c1, the absorption maximum (in C1CCCCC1) is reported as 590 nm, the absorption maximum (in C1CCOC1) is reported as 587 nm and the absorption maximum (in CC#N) is reported as 578 nm. The absorption maximum (in Cc1ccccc1) was 592 nm and the absorption maximum (in ClCCl) was 585 nm.

Work on CC1=CC(C)=[N+]2C1=C(c1ccc(I)cc1)c1c(C)cc(C)n1[B-]2(Oc1ccccc1)Oc1ccccc1 yielded an absorption maximum (in ClC(Cl)Cl) of 506 nm.

With Cc1cc(-c2nc(-c3ccccc3)nc(-c3ccccc3)n2)ccc1N1c2ccccc2[Si](c2ccccc2)(c2ccccc2)c2ccccc21 the absorption maximum (in Cc1ccccc1) was 379.03 nm.

With NC(=O)C1=CN([C@H]2C[C@H](O)[C@@H](COP(=O)([O-])OP(=O)([O-])OC[C@H]3O[C@@H](n4cnc5c(N)ncnc54)C[C@@H]3O)O2)C=CC1 the absorption maximum (in O) was 350 nm.

F[B-]1(F)n2c(cc(Br)c2Br)C(c2ccccc2)=C2C=C(Br)C(c3ccc[nH]3)=[N+]21 showed an absorption maximum (in ClC(Cl)Cl) of 626 nm.

C#Cc1ccc2ccc3oc(=O)cc(C)c3c2c1 showed an absorption maximum (in CCO) of 362 nm.

Work on C1=Cc2ccccc2C(=Cc2ccc(-c3ccc(C=C4c5ccccc5C=Cc5ccccc54)cc3)cc2)c2ccccc21 yielded an absorption maximum (in C1CCOC1) of 339 nm.

Work on COc1ccc(-c2ccc(C(=O)NC(C)(C)C)c3c2ccc2c4ccccc4c4ccccc4c23)cc1 yielded an absorption maximum (in ClCCl) of 339 nm.

CCc1ccc2ccc(-c3ccccc3)nn12 gave an absorption maximum (in C1CCCCC1) of 405 nm.

Compound Cc1ccc(-n2c3ccccc3c3cc(-c4ccc5[n+](c4)[B-](F)(F)n4c-5nc5c6ccccc6c6ccccc6c54)ccc32)cc1 has an absorption maximum (in ClC(Cl)Cl) of 444 nm.

C[Si](C)(C)C#Cc1cc(C#C[Si](C)(C)C)c2ccc3c(C(=O)c4ccccc4)cc(C#C[Si](C)(C)C)c4ccc1c2c43 gave an absorption maximum (in ClCCl) of 426 nm.

With C(#Cc1ccccc1)C(C#Cc1ccccc1)=Cc1ccc(-c2ccc(C=C(C#Cc3ccccc3)C#Cc3ccccc3)cc2)cc1 the absorption maximum (in ClC(Cl)Cl) was 394 nm.

Compound CC(C)(C)c1ccc(-n2c(-c3ccc(-c4cccc(-c5c(-c6ccccc6)nc6ccccn56)c4)cc3)nc3c4ccccc4c4ccccc4c32)cc1 has an absorption maximum (in ClCCl) of 365 nm.

With CCCCCCCCCCN1C(=O)c2cc(NCCCOCCO)c3c4c(cc(NCCCOCCO)c(c24)C1=O)C(=O)N(CCCCCCCCCC)C3=O the absorption maximum (in CO) was 604 nm and the absorption maximum (in ClC(Cl)Cl) was 609 nm.

Work on Cc1ccc(-c2nc3sc4ccccc4c3s2)cc1 yielded an absorption maximum (in CS(C)=O) of 349 nm.

For COc1cc(/C=C/c2nc3ccccc3s2)c(OC)cc1/C=C/c1ccncc1, the absorption maximum (in C1CCOC1) was 415 nm, the absorption maximum (in CC#N) was 410 nm and the absorption maximum (in CN(C)C=O) was 416 nm. It also gave an absorption maximum (in Cc1ccccc1) of 416 nm.

In the case of C[Si](C)(C)C#Cc1ccc(C#C[Si](C)(C)C)c2ccccc12, the absorption maximum (in C1CCCCC1) is reported as 347 nm.

CCC1(CC)c2ccccc2-c2ccc(C#Cc3cc(C#Cc4ccc5c(c4)C(CC)(CC)c4ccccc4-5)c4ccc5c(C#Cc6ccc7c(c6)C(CC)(CC)c6ccccc6-7)cc(C#Cc6ccc7c(c6)C(CC)(CC)c6ccccc6-7)c6ccc3c4c65)cc21 showed an absorption maximum (in Cc1ccccc1) of 488 nm.

In the case of CC(C)[Si](C#Cc1c2cc3ccccc3cc2c(C#Cc2ccccc2)c2cc3ccccc3cc12)(C(C)C)C(C)C, the absorption maximum (in ClCCl) is reported as 652 nm.

With CC1=CC(C)(C)N(C)c2cc3c(cc21)C(c1ccc(Br)cc1)=c1cc2c(cc1O3)=[N+](C)C(C)(C)C=C2C the absorption maximum (in CCO) was 594 nm.

Compound CN(C)c1ccc(/C=C/c2nc3c(ccc4ccccc43)s2)cc1 has an absorption maximum (in C1CCCCC1) of 402 nm and an absorption maximum (in CC#N) of 409 nm.

Cc1ccc(C(=O)OCc2c(C)c(=O)n3c(=O)c(C)c(C)n23)cc1 showed an absorption maximum (in CCO) of 376 nm.

For Cc1cc(C)c(B(c2c(C)cc(C)cc2C)c2c(C)cc(-n3c4ccccc4c4cc(N(c5ccccc5)c5ccccc5)ccc43)cc2C)c(C)c1, the absorption maximum (in Cc1ccccc1) was 375 nm.

Work on Oc1ccc(C2=[N+]3C(=C(c4ccccc4)c4cccn4[B-]3(F)F)C=C2)cc1 yielded an absorption maximum (in ClC(Cl)Cl) of 541 nm.

Work on CCCCC(CC)Cn1c2cc(C#N)c(-c3ccc(N(c4ccccc4)c4ccccc4)cc3)cc2c2cc(-c3ccc(N(c4ccccc4)c4ccccc4)cc3)c(C#N)cc21 (stereo not drawn) yielded an absorption maximum (in ClCCl) of 420 nm.

In the case of CCCCCCCC1=C(C)C(=O)n2c1cc1[nH]c(C(=O)OC)c(C)c1c2=O, the absorption maximum (in C1CCCCC1) is reported as 393 nm, the absorption maximum (in CO) is reported as 397 nm and the absorption maximum (in CS(C)=O) is reported as 397 nm. It also gave an absorption maximum (in ClC(Cl)Cl) of 396 nm and an absorption maximum (in c1ccccc1) of 395 nm.

In the case of CC1=N/C(=C\c2ccccc2N)C(=O)N1C, the absorption maximum (in C1CCCCC1) is reported as 427 nm, the absorption maximum (in C1CCOC1) is reported as 430 nm and the absorption maximum (in CC#N) is reported as 422 nm. For the same compound, the absorption maximum (in CO) was 424 nm, the absorption maximum (in CS(C)=O) was 436 nm and the absorption maximum (in ClCCl) was 422 nm. The absorption maximum (in O) was 390 nm.

N#CC(C#N)=C(/C=C/c1cc2c3c(c1)CCCN3CCC2)c1ccc2c3c(cccc13)CC2 gave an absorption maximum (in C1CCOC1) of 527 nm, an absorption maximum (in CC#N) of 540 nm and an absorption maximum (in CC(C)=O) of 535 nm. The absorption maximum (in CCOC(C)=O) was 523 nm, the absorption maximum (in CN(C)C=O) was 550 nm and the absorption maximum (in CO) was 541 nm. The absorption maximum (in Cc1ccccc1) was 526 nm and the absorption maximum (in ClC(Cl)Cl) was 538 nm.

With CCCCOC(=O)c1ccccc1-c1c2ccc(=[N+](CC)CC)cc-2oc2cc(N(CC)CC)ccc12 the absorption maximum (in CC#N) was 555 nm, the absorption maximum (in CCO) was 543 nm and the absorption maximum (in CN(C)C=O) was 562 nm. It also gave an absorption maximum (in O) of 558 nm.

Cc1cc(C)c(B(c2c(C)cc(C)cc2C)c2c(C)cc(-n3c4ccc(N(c5ccccc5)c5ccccc5)cc4c4cc(N(c5ccccc5)c5ccccc5)ccc43)cc2C)c(C)c1 gave an absorption maximum (in Cc1ccccc1) of 387 nm.

COc1ccc2ncccc2c1 showed an absorption maximum (in CC#N) of 329 nm, an absorption maximum (in CCCC#N) of 329 nm and an absorption maximum (in Cc1ccccc1) of 331 nm.

In the case of COC(=O)c1c(-c2cc3ccccc3oc2=O)nn(-c2cccc(Cl)c2)c1C(=O)OC, the absorption maximum (in ClCCl) is reported as 273 nm.
